molecular target: wild type c-kit (Homo sapiens (Human), UniProt P10721); experiment: PathScan phospho c-kit (Tyr719) sandwich ELISA in SCF-stimulated M-07e cells (pKIT assay); assay type: cell-based; conditions: ELISA assay (values not marked *)
Description: The ability of compounds of the disclosure (described herein as test compounds) to inhibit autophosphorylation of wild type c-kit was measures using either a PathScan phospho c-kit (Tyr719) sandwich ELISA (CST #7298) or a Phospho c-Kit (Tyr721) Assay Whole Cell Lysate Kit (MSD: 515DPD/catalog number K15119D-2).
For the PathScan phospho c-kit (Tyr719) sandwich ELISA: M-07e cells were resuspended at 2×10^6 cells/mL in phenol red free, serum-free, GM-CSF-free Iscove's Modified Dulbecco's Medium (IMDM) media with 1% Penicillin-Streptomycin. The cells were then dispensed into the wells of a U-bottom, 96-well plate at 50 uL per well using a multichannel pipet. The plate was allowed to incubate at 37° C. in a humidified tissue culture incubator for 4 hours.
After 4 hours of incubation, each well was dosed with 6.25 uL of test compound at a final DMSO concentration of 0.25% for 60 min at 37° C. to generate an 8-point dose concentration series of test compounds in duplicate. Cells were then incubated for 1 hour at 37° C. in a humidified tissue culture incubator. Next, human SCF at 500 ng/mL was added to the appropriate wells at 6.25 uL/well and the plate was shaken at 450 rpm at room temperature for 10 minutes. AlphaLISA 5× Lysis Buffer supplemented with 1× protease and phosphatase inhibitor was then added at 16 uL/well. The plate was sealed with an adherent cover and shaken at 4° C. at 600 rpm for 30 minutes. After this period of lysis, the plate was stored at −80° C.
When the 96-well plate containing M07e lysates was ready to be processed, the plate was brought to room temperature and 40 μl from each well was transferred to the wells of a PathScan Phospho-c-Kit (Tyr719) Sandwich ELISA plate (CST, Catalog #7298). The ELISA plate was sealed with an adherent cover and incubated for 2 hours at 37° C. Next, the wells were washed 4 times with the provided 1× Wash Buffer, and 100 uL/well of reconstituted Detection Antibody was added to each well, the plate sealed with an adherent cover, and incubated at 37° C. for 1 hour. The wash procedure was repeated and 100 uL/well of reconstituted HRP-Linked secondary antibody was added. The plate was sealed with an adherent cover and incubated at 37° C. for 1 hour. The wash procedure was repeated and 100 uL/well of TMB Substrate was added. The plate was incubated for 10 minutes at room temperature or until the positive reaction elicited a blue color in the appropriate wells. 100 uL/well of STOP solution was added and shaken gently for a few seconds a microplate reader or conventional spectrophotometer e.g., a Perkin Elmer Envision multimode plate reader, part #2105-0010.
An IC50 was calculated using a 4-parameter logistic nonlinear regression.

Sequence of wild type c-kit (P10721 26-976): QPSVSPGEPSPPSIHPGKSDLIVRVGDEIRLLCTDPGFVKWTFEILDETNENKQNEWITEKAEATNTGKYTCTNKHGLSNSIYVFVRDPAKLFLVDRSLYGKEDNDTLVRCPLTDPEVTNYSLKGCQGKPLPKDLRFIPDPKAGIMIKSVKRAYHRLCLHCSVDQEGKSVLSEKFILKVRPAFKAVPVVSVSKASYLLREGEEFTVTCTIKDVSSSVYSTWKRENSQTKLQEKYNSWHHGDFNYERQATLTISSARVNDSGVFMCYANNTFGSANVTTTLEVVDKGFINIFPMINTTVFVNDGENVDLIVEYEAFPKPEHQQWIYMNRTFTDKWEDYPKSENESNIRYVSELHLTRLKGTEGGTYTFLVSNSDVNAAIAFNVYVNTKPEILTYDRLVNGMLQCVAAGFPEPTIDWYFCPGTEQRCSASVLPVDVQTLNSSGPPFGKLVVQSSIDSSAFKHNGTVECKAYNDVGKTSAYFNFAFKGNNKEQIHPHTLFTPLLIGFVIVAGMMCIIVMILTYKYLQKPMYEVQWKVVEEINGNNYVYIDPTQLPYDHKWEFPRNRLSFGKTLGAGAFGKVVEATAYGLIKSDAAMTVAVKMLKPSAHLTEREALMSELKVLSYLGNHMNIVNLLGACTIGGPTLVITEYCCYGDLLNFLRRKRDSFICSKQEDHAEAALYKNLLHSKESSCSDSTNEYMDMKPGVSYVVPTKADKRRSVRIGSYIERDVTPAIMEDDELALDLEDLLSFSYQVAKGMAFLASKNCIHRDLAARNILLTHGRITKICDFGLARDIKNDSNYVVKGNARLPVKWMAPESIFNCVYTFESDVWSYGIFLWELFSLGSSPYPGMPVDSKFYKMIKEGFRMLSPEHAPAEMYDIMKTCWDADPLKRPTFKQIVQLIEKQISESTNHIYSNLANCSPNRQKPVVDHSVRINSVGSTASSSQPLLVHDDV

Row | IC50 [nM] | SMILES
1 | 37.7 | Cc1cc(C2CC2)c(-c2nnn(C3CC(F)(F)C3)n2)cc1NC(=O)c1cnn2ccc(N3CCOCC3)cc12 [Example 166, N-(4-cyclopropyl-5-(2-(3,3-difluorocyclobutyl)-2H-tetrazol-5-yl)-2-methylphenyl)-5-morpholinopyrazolo[1,5-a]pyridine-3-carboxamide]
2 | 0.5 | Cc1cc(Cl)c(-c2nnn(C3CC3)n2)cc1NC(=O)c1cnn2ccc(-c3cnn(CC(C)(C)O)c3)cc12 [Example 226, N-(4-chloro-5-(2-cyclopropyl-2H-tetrazol-5-yl)-2-methylphenyl)-5-(1-(2-hydroxy-2-methylpropyl)-1H-pyrazol-4-yl)pyrazolo[1,5-a]pyridine-3-carboxamide]
3 | 0.5 | Cc1ccc(-c2nnn(C3CC3)n2)cc1NC(=O)c1cnn2ccc(-c3cnn(CC(C)(C)O)c3)cc12 [Example 242, N-(5-(2-cyclopropyl-2H-tetrazol-5-yl)-2-methylphenyl)-5-(1-(2-hydroxy-2-methylpropyl)-1H-pyrazol-4-yl)pyrazolo[1,5-a]pyridine-3-carboxamide]
4 | 103 | Cc1ccc(-c2nnn(C3CN(S(=O)(=O)CCCCC#N)C3)n2)cc1NC(=O)c1cnn2ccccc12 [Example 186, N-(5-(2-(1-((4-cyanobutyl)sulfonyl)azetidin-3-yl)-2H-tetrazol-5-yl)-2-methylphenyl)pyrazolo[1,5-a]pyridine-3-carboxamide]
5 | 13.4 | Cc1ccc(-c2nnn(C3CN(S(=O)(=O)CC4CCC4)C3)n2)cc1NC(=O)c1cnn2ccccc12 [Example 180, N-(5-(2-(1-((cyclobutylmethyl)sulfonyl)azetidin-3-yl)-2H-tetrazol-5-yl)-2-methylphenyl)pyrazolo[1,5-a]pyridine-3-carboxamide]
6 | 9.3 | COC(=O)N1CC(n2nnc(-c3ccc(Cl)c(NC(=O)c4cnn5cc(N6CCOCC6)ccc45)c3)n2)C1 [Example 163, methyl 3-(5-(4-chloro-3-(6-morpholinopyrazolo[1,5-a]pyridine-3-carboxamido)phenyl)-2H-tetrazol-2-yl)azetidine-1-carboxylate]
7 | 0.7 | CCn1nnc(-c2cc(NC(=O)c3cnn4ccc(-c5cn(C[C@H](O)COCCOC)nc5C)cc34)c(Cl)cc2F)n1 [Example 283, (S)—N-(2-chloro-5-(2-ethyl-2H-tetrazol-5-yl)-4-fluorophenyl)-5-(1-(2-hydroxy-3-(2-methoxyethoxy)propyl)-3-methyl-1H-pyrazol-4-yl)pyrazolo[1,5-a]pyridine-3-carboxamide]
8 | 0.4 | Cc1nn(CC(C)(C)O)cc1-c1ccn2ncc(C(=O)Nc3cc(-c4nnn(C5CC5)n4)ccc3Cl)c2c1 [Example 250, N-(2-chloro-5-(2-cyclopropyl-2H-tetrazol-5-yl)phenyl)-5-(1-(2-hydroxy-2-methylpropyl)-3-methyl-1H-pyrazol-4-yl)pyrazolo[1,5-a]pyridine-3-carboxamide]
9 | 0.3 | Cc1cc(F)c(-c2nnn(C3CC3)n2)cc1NC(=O)c1cnn2ccc(-c3cn(C[C@@H](C)O)nc3C)cc12 [Example 255, (R)-N-(5-(2-cyclopropyl-2H-tetrazol-5-yl)-4-fluoro-2-methylphenyl)-5-(1-(2-hydroxypropyl)-3-methyl-1H-pyrazol-4-yl)pyrazolo[1,5-a]pyridine-3-carboxamide]
10 | 77.8 | Cc1ccc(-c2nnn(C3CN(S(=O)(=O)C4CCOC4)C3)n2)cc1NC(=O)c1cnn2ccccc12 (centres unmarked) [Example 175, N-(2-methyl-5-(2-(1-((tetrahydrofuran-3-yl)sulfonyl)azetidin-3-yl)-2H-tetrazol-5-yl)phenyl)pyrazolo[1,5-a]pyridine-3-carboxamide]
11 | 0.7 | Cc1ccc(-c2nnn(C3CC3)n2)cc1NC(=O)c1cnn2ccc(-c3cnn(C[C@H]4CNCCO4)c3)cc12 [Example 229, (R)-N-(5-(2-cyclopropyl-2H-tetrazol-5-yl)-2-methylphenyl)-5-(1-(morpholin-2-ylmethyl)-1H-pyrazol-4-yl)pyrazolo[1,5-a]pyridine-3-carboxamide]

The next lines start with the compound.

Row | SMILES | IC50 [nM]
12 | CCNc1ccn2ncc(C(=O)Nc3cc(-n4ncc(C5CN(C(=O)OC)C5)n4)ccc3C)c2c1 [Example 137, methyl 3-(2-(3-(5-(ethylamino)pyrazolo[1,5-a]pyridine-3-carboxamido)-4-methylphenyl)-2H-1,2,3-triazol-4-yl)azetidine-1-carboxylate] | 16.8
13 | COCC(C)Nc1ccn2ncc(C(=O)Nc3cc(-c4nnn(C5CN(C(=O)OC)C5)n4)ccc3C)c2c1 (stereo in doubt) [Example 128, methyl (S)-3-(5-(3-(5-((1-methoxypropan-2-yl)amino)pyrazolo[1,5-a]pyridine-3-carboxamido)-4-methylphenyl)-2H-tetrazol-2-yl)azetidine-1-carboxylate] | 47.4
14 | COC(=O)N1CC(n2nnc(-c3ccc(C)c(NC(=O)c4cnn5ccc(N6CCO[C@@H](CO)C6)cc45)c3)n2)C1 [Example 91, methyl (R)-3-(5-(3-(5-(2-(hydroxymethyl)morpholino)pyrazolo[1,5-a]pyridine-3-carboxamido)-4-methylphenyl)-2H-tetrazol-2-yl)azetidine-1-carboxylate] | 50.9
15 | COCCNc1ccn2ncc(C(=O)Nc3cc(-c4nnn(C5CC(F)(F)C5)n4)c(F)cc3C)c2c1 [Example 105, N-(5-(2-(3,3-difluorocyclobutyl)-2H-tetrazol-5-yl)-4-fluoro-2-methylphenyl)-5-((2-methoxyethyl)amino)pyrazolo[1,5-a]pyridine-3-carboxamide] | 3.5
16 | [2H]C([2H])([2H])N1CCN(c2ccn3ncc(C(=O)Nc4cc(-n5ncc(C6CN(C(=O)OC)C6)n5)ccc4C)c3c2)CC1 [Example 82, methyl 3-(2-(4-methyl-3-(5-(4-(methyl-d3)piperazin-1-yl)pyrazolo[1,5-a]pyridine-3-carboxamido)phenyl)-2H-1,2,3-triazol-4-yl)azetidine-1-carboxylate] | 23.4
17 | Cc1ccc(-c2nnn([C@H]3C[C@H](C(F)(F)F)C3)n2)cc1NC(=O)c1cnn2ccc(NCCO)cc12 [Example 121, 5-((2-hydroxyethyl)amino)-N-(2-methyl-5-(2-((1r,3r)-3-(trifluoromethyl)cyclobutyl)-2H-tetrazol-5-yl)phenyl)pyrazolo[1,5-a]pyridine-3-carboxamide or 5-((2-hydroxyethyl)amino)-N-(2-methyl-5-(2-((1s,3s)-3-(trifluoromethyl)cyclobutyl)-2H-tetrazol-5-yl)phenyl)pyrazolo[1,5-a]pyridine-3-carboxamide] | 11.9
18 | COC(=O)N1CC(n2nnc(-c3ccc(C)c(NC(=O)c4cnn5ccc(N(C)C)cc45)c3)n2)C1 [Example 132, methyl 3-(5-(3-(5-(dimethylamino)pyrazolo[1,5-a]pyridine-3-carboxamido)-4-methylphenyl)-2H-tetrazol-2-yl)azetidine-1-carboxylate] | 21.4
19 | Cc1cc(F)c(-c2nnn(C3CC(F)(F)C3)n2)cc1NC(=O)c1cnn2ccc(N3CCOCC3)cc12 [Example 59, N-(5-(2-(3,3-difluorocyclobutyl)-2H-tetrazol-5-yl)-4-fluoro-2-methylphenyl)-5-morpholinopyrazolo[1,5-a]pyridine-3-carboxamide] | 4.5
20 | Nc1ccn2ncc(C(=O)Nc3cc(-c4nnn(CC5CC5(F)F)n4)ccc3Cl)c2c1 (centres unmarked) [Example 27, 5-amino-N-(2-chloro-5-(2-((2,2-difluorocyclopropyl)methyl)-2H-tetrazol-5-yl)phenyl)pyrazolo[1,5-a]pyridine-3-carboxamide] | 19.3
21 | Cc1ccc(-c2nnn(CCCC(F)(F)F)n2)cc1NC(=O)c1cnn2ccccc12 [Example 1, N-(2-methyl-5-(2-(4,4,4-trifluorobutyl)-2H-tetrazol-5-yl)phenyl)pyrazolo[1,5-a]pyridine-3-carboxamide] | 3.8
22 | Cc1ccc(-c2nnn(C)n2)cc1NC(=O)c1cnn2ccc(-c3cnn(CC(C)(C)O)c3)cc12 [Example 48, 5-(1-(2-hydroxy-2-methylpropyl)-1H-pyrazol-4-yl)-N-(2-methyl-5-(2-methyl-2H-tetrazol-5-yl)phenyl)pyrazolo[1,5-a]pyridine-3-carboxamide] | 3.6
23 | Cc1ccc(-c2nnn(CC3CC4(CC4)CO3)n2)cc1NC(=O)c1cnn2ccccc12 (centres unmarked) [Example 10, N-(5-(2-((5-oxaspiro[2.4]heptan-6-yl)methyl)-2H-tetrazol-5-yl)-2-methylphenyl)pyrazolo[1,5-a]pyridine-3-carboxamide] | 3.8

— patent US20240262826A1, “WILD TYPE KIT INHIBITORS” (Blueprint Medicines Corporation, priority 2022, published 2024)
